Values quoted from earlier work, collected in PMC10368966, “Safety and efficacy of AK0529 in respiratory syncytial virus‐infected infant patients: A phase 2 proof‐of‐concept trial” (Influenza and Other Respiratory Viruses, 2023).

Tests used:
[1] = system: RSV; design: method as in PMID 32201897; settings: cited from earlier work
[2] = system: SARS-CoV-2; design: method as in PMID 32423584; settings: cell cultures ref 18; cited from earlier work
[3] = system: SARS-CoV-2; design: method as in PMID 32423584; settings: patients with severe COVID-19 ref 18; cited from earlier work

| SMILES | length of hospital stay or time to clinical stability [1] | reduction in RSV viral load vs placebo [1] | inhibition of SARS-CoV-2 virus replication [2] | effect on viral load [3] | time to clinical improvement [3] |
| --- | --- | --- | --- | --- | --- |
| CS(=O)(=O)CCCn1c(Cn2c(=O)n(CC(F)(F)F)c3ccncc32)cc2cc(Cl)ccc21 [JNJ‐8678] | no improvements | greater reduction in RSV viral load than with placebo | – | – | – |
| CCC(CC)COC(=O)[C@H](C)N[P@](=O)(OC[C@H]1O[C@@](C#N)(c2ccc3c(N)ncnn23)[C@H](O)[C@@H]1O)Oc1ccccc1 [Remdesivir] | – | – | potent inhibitor | no effect | numerically shorter |
